Results reported in ChEMBL document CHEMBL1139571, “Synthesis and characterization of azole isoflavone inhibitors of aromatase” (Bioorg Med Chem Lett, 2005).

Biological target: T1, Aromatase (Homo sapiens, UniProt P11511)
T1 sequence (P11511 whole entry): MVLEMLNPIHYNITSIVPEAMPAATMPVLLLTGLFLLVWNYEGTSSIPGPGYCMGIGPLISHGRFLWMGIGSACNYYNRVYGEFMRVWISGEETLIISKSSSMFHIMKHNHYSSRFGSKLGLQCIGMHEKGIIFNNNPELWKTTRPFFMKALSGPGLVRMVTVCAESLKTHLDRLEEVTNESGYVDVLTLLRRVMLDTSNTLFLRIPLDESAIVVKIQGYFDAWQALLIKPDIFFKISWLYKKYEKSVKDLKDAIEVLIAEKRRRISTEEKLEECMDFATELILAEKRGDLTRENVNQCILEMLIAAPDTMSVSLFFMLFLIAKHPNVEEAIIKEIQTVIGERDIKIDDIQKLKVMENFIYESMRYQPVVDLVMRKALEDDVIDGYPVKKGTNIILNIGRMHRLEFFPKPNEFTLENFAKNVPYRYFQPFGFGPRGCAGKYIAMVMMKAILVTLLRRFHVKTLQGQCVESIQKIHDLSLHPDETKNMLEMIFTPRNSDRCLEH
Description: Inhibitory concentration against human placental aromatase by deutirium oxide release

IC50: > 50 µM
SMILES: COc1ccc2c(=O)c(-c3ccccc3)c(Sc3nccn3C)oc2c1
